Measurements taken from PubChem BioAssay AID330 (DTP/NCI, 2004).
Where “and” joins values, the source holds several entries; their conditions need not be identical. Identical values can stand only once. Toxic doses and inconclusive results are not listed. Rule for the calls: active = survival T/C of 150% or more; inactive = T/C below 125% in these data. Square brackets hold non-standard residues; d marks the D form. Peptide text beside a SMILES is read from it. Tyr(3,5-I2) = N[CH](Cc1cc(I)c(O)c(I)c1)C(=O)O

System: P388 leukemia ip, CD2F1 mice, survival T/C
Test: NCI In Vivo Anticancer Drug Screen. Data for tumor model P388 Leukemia (intraperitoneal) in CD2F1 (CDF1) mice
Conditions: endpoint: median survival time, higher = longer survival
Procedure, shortened: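 Mice carrying the transplanted tumor received test compound or vehicle. Survival was recorded in each group, and the value is the treated-group measurement divided by that of the vehicle-treated control group.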

[1] = dose: 100.0 mg/kg/injection, schedule: Q01DX001 (ip), vehicle: saline with Tween-80
[2] = dose: 200.0 mg/kg/injection, schedule: Q01DX001 (ip), vehicle: saline with Tween-80
[3] = dose: 400.0 mg/kg/injection, schedule: Q01DX001 (ip), vehicle: saline with Tween-80
[4] = dose: 100.0 mg/kg/injection, schedule: Q01DX009 (ip), vehicle: saline with Tween-80
[5] = dose: 100.0 mg/kg/injection, schedule: Q04DX002 (ip), vehicle: Klucel (hydroxypropylcellulose) (HPC)
[6] = dose: 200.0 mg/kg/injection, schedule: Q04DX002 (ip), vehicle: Klucel (hydroxypropylcellulose) (HPC)
[7] = dose: 50.0 mg/kg/injection, schedule: Q01DX005 (ip), vehicle: Klucel (hydroxypropylcellulose) (HPC)
[8] = dose: 100.0 mg/kg/injection, schedule: Q01DX005 (ip), vehicle: Klucel (hydroxypropylcellulose) (HPC)
[9] = dose: 200.0 mg/kg/injection, schedule: Q01DX005 (ip), vehicle: Klucel (hydroxypropylcellulose) (HPC)
[10] = dose: 60.0 mg/kg/injection, schedule: Q01DX005 (ip), vehicle: saline with Tween-80
[11] = dose: 120.0 mg/kg/injection, schedule: Q01DX005 (ip), vehicle: saline with Tween-80
[12] = dose: 240.0 mg/kg/injection, schedule: Q01DX005 (ip), vehicle: saline with Tween-80
[13] = dose: 50.0 mg/kg/injection, schedule: Q01DX005 (ip), vehicle: saline with Tween-80
[14] = dose: 200.0 mg/kg/injection, schedule: Q01DX005 (ip), vehicle: saline with Tween-80
[15] = dose: 50.0 mg/kg/injection, schedule: Q01DX005 (ip), vehicle: saline
[16] = dose: 100.0 mg/kg/injection, schedule: Q01DX005 (ip), vehicle: saline
[17] = dose: 100.0 mg/kg/injection, schedule: Q01DX001 (ip), vehicle: Klucel (hydroxypropylcellulose) (HPC)
[18] = dose: 200.0 mg/kg/injection, schedule: Q01DX001 (ip), vehicle: Klucel (hydroxypropylcellulose) (HPC)
[19] = dose: 400.0 mg/kg/injection, schedule: Q01DX001 (ip), vehicle: Klucel (hydroxypropylcellulose) (HPC)

Measured: T/C

CC1(C)CC1(Cl)S(C)(=O)=O (stereo not given)
inactive: [1] 106 % of control | [2] 105 % of control | [3] 100 % of control

O=C1C(Cl)=C(n2c(=O)oc3ccccc32)C(=O)c2ccccc21
inactive: dose: 50.0 mg/kg/injection, schedule: Q01DX009 (ip), vehicle: saline with Tween-80 93 % of control | [4] 98 % of control

CC(C)(C)C(=O)Nc1c(Cl)cc(Br)cc1Br
inactive: dose: 50.0 mg/kg/injection, schedule: Q01DX009 (ip), vehicle: saline + alcohol 105 % of control | dose: 100.0 mg/kg/injection, schedule: Q01DX009 (ip), vehicle: saline + alcohol 101 % of control | dose: 200.0 mg/kg/injection, schedule: Q01DX009 (ip), vehicle: saline + alcohol 100 % of control

C=C(C)C1CC(=O)C2(C)C(C1)OC(=O)C2C(=O)OCC (stereo not given)
inactive: [5] 101 % of control | [6] 103 % of control and 106 % of control | dose: 400.0 mg/kg/injection, schedule: Q04DX002 (ip), vehicle: Klucel (hydroxypropylcellulose) (HPC) 103 % of control and 104 % of control

CC(C)=CCC1=C(OC2OC(CO)C(O)C(O)C2O)C(=O)c2ccccc2C1=O (stereo not given)
inactive: dose: 6.25 mg/kg/injection, schedule: Q01DX009 (ip), vehicle: saline with Tween-80 121 % of control | dose: 12.5 mg/kg/injection, schedule: Q01DX009 (ip), vehicle: saline with Tween-80 118 % of control | dose: 25.0 mg/kg/injection, schedule: Q01DX009 (ip), vehicle: saline with Tween-80 114 % of control

CN(C)c1ccc(C(=O)c2ccc(N(C)C)cc2)cc1
inactive: [4] 100 % of control | dose: 200.0 mg/kg/injection, schedule: Q01DX009 (ip), vehicle: saline with Tween-80 112 % of control | dose: 400.0 mg/kg/injection, schedule: Q01DX009 (ip), vehicle: saline with Tween-80 116 % of control

COc1cc2c(cc1OC)C1=[N+](CC2)C2=C(CC1)C(=O)CCC2
inactive: dose: 25.0 mg/kg/injection, schedule: Q01DX005 (ip), vehicle: Klucel (hydroxypropylcellulose) (HPC) 94 % of control | [7] 97 % of control | [8] 99 % of control | [9] 93 % of control

CN(C)CCCOC1=Nc2ccccc2O/C1=C/c1ccccc1
inactive: dose: 12.5 mg/kg/injection, schedule: Q04DX003 (ip), vehicle: saline 98 % of control | dose: 25.0 mg/kg/injection, schedule: Q04DX003 (ip), vehicle: saline 94 % of control | dose: 50.0 mg/kg/injection, schedule: Q04DX003 (ip), vehicle: saline 97 % of control | dose: 100.0 mg/kg/injection, schedule: Q04DX003 (ip), vehicle: saline 97 % of control

O=C(Nc1cccc(C(F)(F)F)c1)Oc1ccc(Cl)c2cccnc12
inactive: [10] 99 % of control | [11] 98 % of control | [12] 105 % of control

CCOC(=O)C1(O)CC(O)C(O)C(O)C1OC (stereo not given)
inactive: [1] 94 % of control | [2] 92 % of control | [3] 94 % of control

O=c1c2[nH]c3ccccc3sc=2c(=O)n1-c1ccccc1Cl
inactive: [13] 98 % of control | [11] 98 % of control | [14] 97 % of control

C=C1C2(C(=O)O)CCC(C2)C1(C)C (stereo not given)
inactive: [13] 105 % of control | dose: 100.0 mg/kg/injection, schedule: Q01DX005 (ip), vehicle: saline with Tween-80 101 % of control | [14] 111 % of control

NCC(O)c1ccc(Nc2ccnc3cc(Cl)ccc23)cc1 (stereo not given)
inactive: [15] 114 % of control | [16] 105 % of control

Cc1ccccc1N1CCN(C(=O)c2nc3ccccc3[nH]2)CC1
inactive: [7] 91 % of control | [8] 87 % of control | [9] 101 % of control

CCOC(=O)C1C/C(=N\OC(C)=O)c2ccc(OC)c(OC)c2C1 (stereo not given)
inactive: dose: 12.5 mg/kg/injection, schedule: Q01DX009 (ip), vehicle: other 110 % of control | dose: 25.0 mg/kg/injection, schedule: Q01DX009 (ip), vehicle: other 101 % of control | dose: 50.0 mg/kg/injection, schedule: Q01DX009 (ip), vehicle: other 98 % of control | dose: 100.0 mg/kg/injection, schedule: Q01DX009 (ip), vehicle: other 87 % of control | dose: 200.0 mg/kg/injection, schedule: Q01DX009 (ip), vehicle: other 88 % of control

CCCCOC(=O)CNCC(=O)OCCCC
inactive: [10] 100 % of control | [11] 101 % of control | [12] 104 % of control

CSCCC(NC=O)C(=O)O (stereo not given)
inactive: dose: 3.12 mg/kg/injection, schedule: Q01DX009 (ip), vehicle: saline 88 % of control | dose: 6.25 mg/kg/injection, schedule: Q01DX009 (ip), vehicle: saline 91 % of control | dose: 12.5 mg/kg/injection, schedule: Q01DX009 (ip), vehicle: saline 87 % of control | dose: 25.0 mg/kg/injection, schedule: Q01DX009 (ip), vehicle: saline 92 % of control | [15] 98 % of control | [16] 98 % of control | dose: 200.0 mg/kg/injection, schedule: Q01DX005 (ip), vehicle: saline 98 % of control

CC(=O)/C(=C\c1ccccc1)C(=O)CCN(C)C
inactive: dose: 25.0 mg/kg/injection, schedule: Q01DX005 (ip), vehicle: saline with Tween-80 100 % of control | [13] 103 % of control

CC(Cc1ccccc1)C(=O)Nc1ccccc1 (stereo not given)
inactive: dose: 100.0 mg/kg/injection, schedule: Q04DX002 (ip), vehicle: saline with Tween-80 91 % of control | dose: 200.0 mg/kg/injection, schedule: Q04DX002 (ip), vehicle: saline with Tween-80 94 % of control | dose: 400.0 mg/kg/injection, schedule: Q04DX002 (ip), vehicle: saline with Tween-80 91 % of control

O=C(SCC(/C=N/Nc1ccc([N+](=O)[O-])cc1[N+](=O)[O-])c1ccccc1)c1ccccc1 (stereo not given)
inactive: [17] 92 % of control | [18] 89 % of control | [19] 92 % of control

CC(=O)OCC1OC(OC2C(COC(C)=O)OC(Sc3ccccc3)C(OC(C)=O)C2OC(C)=O)C(OC(C)=O)C(OC(C)=O)C1OC(C)=O (stereo not given)
inactive: [7] 100 % of control | [8] 100 % of control | [5] 94 % of control | [9] 109 % of control | [6] 91 % of control

CCOc1ccc(N=NC2C(=O)N(c3cccc(Cl)c3Cl)C(=S)N(c3ccc(OC)cc3)C2O)cc1 (stereo not given)
inactive: [17] 100 % of control | [18] 96 % of control | [19] 96 % of control

CCOc1ccc2c(c1)/C(=C\C=C\C1CC(C)C3CC(OCC)CCC3N1CC)CC(C)N2CC (stereo not given)
inactive: dose: 1.25 mg/kg/injection, schedule: Q01DX009 (ip), vehicle: saline + alcohol 120 % of control

COc1ccc(-c2nc(N)nc(-c3nc(N)nc(-c4ccc(OC)cc4)c3-c3ccc(OC)cc3)c2-c2ccc(OC)cc2)cc1
inactive: [10] 96 % of control | [11] 96 % of control | [12] 99 % of control

NC(=NCCCCCCN=C(N)[N+](=O)[O-])N[N+](=O)[O-]
inactive: dose: 6.25 mg/kg/injection, schedule: Q01DX009 (ip), vehicle: Klucel (hydroxypropylcellulose) (HPC) 113 % of control and 123 % of control | dose: 12.5 mg/kg/injection, schedule: Q01DX009 (ip), vehicle: Klucel (hydroxypropylcellulose) (HPC) 105 % of control and 106 % of control | dose: 25.0 mg/kg/injection, schedule: Q01DX009 (ip), vehicle: Klucel (hydroxypropylcellulose) (HPC) 99 % of control and 106 % of control

CCOC(=O)C(C(=O)OCC)=S1c2ccccc2Sc2ccccc21
inactive: dose: 60.0 mg/kg/injection, schedule: Q01DX005 (ip), vehicle: Klucel (hydroxypropylcellulose) (HPC) 90 % of control | dose: 120.0 mg/kg/injection, schedule: Q01DX005 (ip), vehicle: Klucel (hydroxypropylcellulose) (HPC) 89 % of control

CC(=O)NC(Cc1ccccc1)C(=O)NC(Cc1cc(I)c(O)c(I)c1)C(=O)O (stereo not given) (Ac-Phe-[Tyr(3,5-I2)]-OH; configuration not given here)
inactive: [7] 93 % of control | [8] 107 % of control | [9] 99 % of control
